From ChEMBL document CHEMBL4190217, “Botrysphones A-C and Botrysphins A-F, Triketides and Diterpenoids from the Fungus Botrysphaeria laricina” (J Nat Prod, 2017) come the findings set out here.

Common to all, as to assay type: cell-based
The nature of data set [1]: Cytotoxicity against mouse Hepa1c1c7 cells assessed as reduction in cell viability at 2.5 uM by MTT assay. On the technique in general: Formazan colour is commonly taken as a measure of viable cells.
Data set [2] is described as follows: Cytotoxicity against mouse Hepa1c1c7 cells assessed as reduction in cell viability by MTT assay. As to conditions: Hepa-1c1c7.
The nature of data set [3]: Cytotoxicity against mouse Hepa1c1c7 cells assessed as reduction in cell viability at 0.125 uM by MTT assay.

With `C=C[C@@]1(C)CCC2=C(C(=O)C(O)=C3C(C)(C)CCC[C@]23C(=O)O[C@H]2C(=O)C=C(OC)[C@@H](O)[C@H]2O)[C@H]1O`, the Activity result in data set [1] is listed as “Non-Toxic”. The IC50 in data set [2] was 45.3 µM.

Regarding `COC1=CC(=O)[C@@H]2O[C@@H]2[C@@H]1O`, in data set [2], the IC50 was > 50 µM.

With `C[S+]([O-])CCCCN=C=S` (centres undefined) [SULFORAPHANE], the IC50 in data set [2] turned out to be 15.7 µM.

`COC1=CC(=O)[C@H](Cl)[C@H](O)[C@@H]1O`: the concentration for half-maximal inhibition (IC50) in data set [2] was > 50 µM.

Turning to `C=C[C@@]1(C)CC(=O)C2=C(CC[C@H]3C(C)(C)CCC[C@]23C)[C@H]1O`, the IC50 in data set [2] was > 50 µM.

On to `C=C[C@]1(C)C=C2[C@@H](O)[C@@]3(O)OC(=O)[C@@]4(CCCC(C)(C)[C@H]34)[C@@]2(O)CC1` [SPHAEROPSIDIN B], for which, in data set [2], the half-inhibitory concentration (IC50) was > 50 µM.

For `C=C[C@]1(C)C=C2C(=O)[C@@]3(O)OC(=O)[C@@]4(CCCC(C)(C)[C@H]34)[C@@]2(O)CC1` [SPHAEROPSIDIN A], the IC50 in data set [2] was 2.1 µM. Further, the Activity entry in data set [3] was “Non-Toxic”.

The term IC50 denotes the midpoint of a concentration-inhibition curve.
